In patent US20260325533A1, “CDK INHIBITOR COMPOUNDS” (ALEKSIA THERAPEUTICS, INC., priority 2023, published 2026):
Read-outs that look alike come from different tables or passages of the source.

Legend:
Format in all cases: biochemical
CDK6/CCND1 = CDK6/CCND1 (Homo sapiens, UniProt Q00534); test: CDK6 homogeneous time-resolved fluorescence (HTRF) kinase assay; conditions: CDK6/CCND, 1 mM ATP
How it was run: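 1 nM enzyme, 1 mM ATP, 50 nM ULight-4E-BP1 (Thr37/46) peptide, 1% DMSO; 20 min compound preincubation, 60 min reaction, 23 °C. EDTA stop, 2 nM Eu-anti-phospho-4E-BP1 antibody 60 min. TR-FRET 665 nm (or 665/615 ratio); IC50 from 11-point half-log titration, top 10 μM.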

CDK1/CCNB1 = CDK1/CCNB1 (Homo sapiens, UniProt P06493); test: CDK1 homogeneous time-resolved fluorescence (HTRF) kinase assay; conditions: CDK1/CCNB
Chain of CDK1/CCNB1 (P06493 whole entry): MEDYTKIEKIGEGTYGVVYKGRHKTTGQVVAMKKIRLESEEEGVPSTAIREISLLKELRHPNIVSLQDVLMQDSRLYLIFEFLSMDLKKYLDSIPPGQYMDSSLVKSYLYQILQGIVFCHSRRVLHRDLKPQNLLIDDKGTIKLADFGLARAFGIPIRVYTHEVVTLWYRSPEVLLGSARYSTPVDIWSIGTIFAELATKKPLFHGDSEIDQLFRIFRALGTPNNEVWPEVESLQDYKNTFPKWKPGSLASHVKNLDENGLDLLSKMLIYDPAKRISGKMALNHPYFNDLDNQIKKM
Chain of CDK1/CCNB1 (P14635 whole entry partner): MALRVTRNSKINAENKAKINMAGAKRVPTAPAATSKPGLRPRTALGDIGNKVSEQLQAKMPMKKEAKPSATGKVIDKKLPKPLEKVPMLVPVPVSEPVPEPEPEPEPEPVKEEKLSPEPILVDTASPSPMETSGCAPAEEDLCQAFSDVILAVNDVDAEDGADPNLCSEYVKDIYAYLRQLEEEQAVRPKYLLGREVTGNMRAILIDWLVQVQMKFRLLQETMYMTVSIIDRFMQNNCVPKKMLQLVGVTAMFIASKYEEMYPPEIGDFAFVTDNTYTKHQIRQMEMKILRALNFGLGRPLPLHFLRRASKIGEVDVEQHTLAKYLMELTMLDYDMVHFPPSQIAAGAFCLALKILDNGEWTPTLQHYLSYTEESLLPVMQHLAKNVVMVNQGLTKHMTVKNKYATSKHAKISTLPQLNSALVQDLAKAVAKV
How it was run: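 HTRF assay with 0.5 nM CDK1/CCNB1, 1 mM ATP, 50 nM ULight-eIF4E-BP1 (Thr37/46) peptide; compound preincubated 20 min, reaction 60 min at 23 °C, EDTA stop, Eu-anti-phospho antibody detection. 11-point half-log titration from 10 μM, 1% DMSO; IC50 from 665 nm or 665/615 signal.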

CDK4/CCND3 = CDK4/CCND3 (Homo sapiens, UniProt P11802); test: CDK4 homogeneous time-resolved fluorescence (HTRF) kinase assay; conditions: CDK4/CCND
Chain of CDK4/CCND3 (P11802 whole entry): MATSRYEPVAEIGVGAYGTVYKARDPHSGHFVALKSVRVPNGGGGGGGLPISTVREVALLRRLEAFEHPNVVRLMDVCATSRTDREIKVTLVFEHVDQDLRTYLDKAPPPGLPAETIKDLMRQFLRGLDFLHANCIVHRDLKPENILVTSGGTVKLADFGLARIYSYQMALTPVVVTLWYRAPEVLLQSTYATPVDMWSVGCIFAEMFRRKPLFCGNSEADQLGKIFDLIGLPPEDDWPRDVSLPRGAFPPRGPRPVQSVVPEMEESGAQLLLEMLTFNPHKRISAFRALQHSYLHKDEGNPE
Chain of CDK4/CCND3 (P30281 whole entry partner): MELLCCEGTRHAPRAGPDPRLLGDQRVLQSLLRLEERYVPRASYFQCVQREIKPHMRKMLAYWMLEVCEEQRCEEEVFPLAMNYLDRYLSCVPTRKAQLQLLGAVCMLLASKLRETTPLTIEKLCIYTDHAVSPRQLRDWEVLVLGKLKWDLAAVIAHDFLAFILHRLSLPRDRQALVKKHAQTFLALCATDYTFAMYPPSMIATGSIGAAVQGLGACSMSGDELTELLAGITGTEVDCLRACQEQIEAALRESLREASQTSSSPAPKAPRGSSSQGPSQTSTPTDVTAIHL
How it was run: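 Inhibition of CDK4/CCND3 (1.5 nM) was measured at high ATP (1 mM) using 50 nM ULight-labelled 4E-BP1 Thr37/46 peptide; detection used 2 nM europium anti-phospho antibody after EDTA quench. IC50 values came from 11-point half-log titrations typically starting at 10 μM.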

CDK2/CCNE1 = CDK2/CCNE1 (Homo sapiens, UniProt P24941); test: CDK2 homogeneous time-resolved fluorescence (HTRF) kinase assay; conditions: CDK2/CCNE
How it was run: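 CDK2/CCNE1 (3 nM) preincubated 20 min at 23 °C with compound, then reacted 60 min at 23 °C with 1 mM ATP and 50 nM ULight-4E-BP1 (Thr37/46) peptide. Stopped with EDTA, phospho-peptide detected by Eu-anti-phospho antibody (665 nm or 665/615 ratio). IC50 from 11-point half-log titrations typically starting at 10 μM.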

[1] = 25-250 nM, read-out: CDK6/CCND IC50, 25-250 nM
[2] = 25-250 nM, read-out: CDK1/CCNB IC50, 25-250 nM
[3] = 25-250 nM, read-out: CDK4/CCND IC50, 25-250 nM
[4] = <25 nM, read-out: CDK2/CCNE IC50, <25 nM
[5] = >250 nM, read-out: CDK6/CCND IC50, >250 nM
[6] = >250 nM, read-out: CDK1/CCNB IC50 >250 nM
[7] = >250 nM, read-out: CDK4/CCND IC50, >250 nM
[8] = >250 nM, read-out: CDK2/CCNE IC50, >250 nM
[9] = 25-250 nM, read-out: CDK2/CCNE IC50, 25-250 nM

Chain of CDK6/CCND1 (Q00534 whole entry): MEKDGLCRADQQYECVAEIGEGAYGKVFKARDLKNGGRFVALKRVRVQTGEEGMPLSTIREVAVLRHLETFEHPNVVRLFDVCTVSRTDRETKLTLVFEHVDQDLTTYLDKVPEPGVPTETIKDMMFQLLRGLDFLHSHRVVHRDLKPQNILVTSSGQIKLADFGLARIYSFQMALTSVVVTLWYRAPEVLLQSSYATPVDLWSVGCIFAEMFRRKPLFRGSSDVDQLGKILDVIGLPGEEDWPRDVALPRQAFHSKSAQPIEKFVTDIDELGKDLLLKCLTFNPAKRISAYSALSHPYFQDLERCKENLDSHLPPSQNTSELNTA
Chain of CDK6/CCND1 (P24385 whole entry partner): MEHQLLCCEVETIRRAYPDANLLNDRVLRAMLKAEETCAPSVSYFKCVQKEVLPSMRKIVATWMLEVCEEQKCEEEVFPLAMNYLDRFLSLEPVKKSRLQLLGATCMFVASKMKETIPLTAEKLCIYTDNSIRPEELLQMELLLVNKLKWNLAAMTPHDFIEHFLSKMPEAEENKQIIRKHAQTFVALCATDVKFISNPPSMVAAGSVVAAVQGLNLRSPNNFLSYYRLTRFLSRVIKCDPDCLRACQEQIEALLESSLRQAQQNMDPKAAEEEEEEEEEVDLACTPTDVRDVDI

Cc1c(-c2nccc3cnc(Nc4ccc(NS(=O)(=O)c5ccoc5)cc4)cc23)ccc2c1cnn2CC(C)(C)O [Ex 825, N-(4-((5-(1-(2-hydroxy-2-methylpropyl)-4-methyl-1H-indazol-5-yl)-2,6-naphthyridin-3-yl)amino)phenyl)furan-3-sulfonamide]
IC50 (CDK6/CCND1; [1]): 25 to 250 nM | IC50 (CDK1/CCNB1; [2]): 25 to 250 nM | IC50 (CDK4/CCND3; [3]): 25 to 250 nM | IC50 (CDK2/CCNE1; [4]): < 25 nM

Cc1nn(-c2ccccc2)c(C)c1S(=O)(=O)Nc1ccc(Nc2cc3c(-c4ccc5c(cnn5CC(C)(C)O)c4C)nccc3cn2)cc1 [Ex 826, N-(4-((5-(1-(2-hydroxy-2-methylpropyl)-4-methyl-1H-indazol-5-yl)-2,6-naphthyridin-3-yl)amino)phenyl)-3,5-dimethyl-1-phenyl-1H-pyrazole-4-sulfonamide]
IC50 (CDK6/CCND1; [5]): > 250 nM | IC50 (CDK1/CCNB1; [6]): > 250 nM | IC50 (CDK4/CCND3; [7]): > 250 nM | IC50 (CDK2/CCNE1; [8]): > 250 nM

Cc1c(-c2nccc3cnc(Nc4ccc(NS(=O)(=O)c5ccc(Cl)s5)cc4)cc23)ccc2c1cnn2CC(C)(C)O [Ex 827, 5-chloro-N-(4-((5-(1-(2-hydroxy-2-methylpropyl)-4-methyl-1H-indazol-5-yl)-2,6-naphthyridin-3-yl)amino)phenyl)thiophene-2-sulfonamide]
IC50 (CDK6/CCND1; [5]): > 250 nM | IC50 (CDK1/CCNB1; [6]): > 250 nM | IC50 (CDK4/CCND3; [7]): > 250 nM | IC50 (CDK2/CCNE1; [9]): 25 to 250 nM

Cc1c(-c2nccc3cnc(Nc4ccc(NS(=O)(=O)c5cn(C)cn5)cc4)cc23)ccc2c1cnn2CC(C)(C)O [Ex 828, N-(4-((5-(1-(2-hydroxy-2-methylpropyl)-4-methyl-1H-indazol-5-yl)-2,6-naphthyridin-3-yl)amino)phenyl)-1-methyl-1H-imidazole-4-sulfonamide]
IC50 (CDK6/CCND1; [1]): 25 to 250 nM | IC50 (CDK1/CCNB1; [2]): 25 to 250 nM | IC50 (CDK4/CCND3; [3]): 25 to 250 nM | IC50 (CDK2/CCNE1; [4]): < 25 nM

CCc1ccc(S(=O)(=O)Nc2ccc(Nc3cc4c(-c5ccc6c(cnn6CC(C)(C)O)c5C)nccc4cn3)cc2)s1 [Ex 829, 5-ethyl-N-(4-((5-(1-(2-hydroxy-2-methylpropyl)-4-methyl-1H-indazol-5-yl)-2,6-naphthyridin-3-yl)amino)phenyl)thiophene-2-sulfonamide]
IC50 (CDK6/CCND1; [5]): > 250 nM | IC50 (CDK1/CCNB1; [6]): > 250 nM | IC50 (CDK4/CCND3; [7]): > 250 nM | IC50 (CDK2/CCNE1; [4]): < 25 nM

Cc1nn(C)c(C)c1S(=O)(=O)Nc1ccc(Nc2cc3c(-c4ccc5c(cnn5CC(C)(C)O)c4C)nccc3cn2)cc1 [Ex 830, N-(4-((5-(1-(2-hydroxy-2-methylpropyl)-4-methyl-1H-indazol-5-yl)-2,6-naphthyridin-3-yl)amino)phenyl)-1,3,5-trimethyl-1H-pyrazole-4-sulfonamide]
IC50 (CDK6/CCND1; [5]): > 250 nM | IC50 (CDK1/CCNB1; [6]): > 250 nM | IC50 (CDK4/CCND3; [7]): > 250 nM | IC50 (CDK2/CCNE1; [4]): < 25 nM

Cc1c(-c2nccc3cnc(Nc4ccc(NS(=O)(=O)c5ccsc5)cc4)cc23)ccc2c1cnn2CC(C)(C)O [Ex 831, N-(4-((5-(1-(2-hydroxy-2-methylpropyl)-4-methyl-1H-indazol-5-yl)-2,6-naphthyridin-3-yl)amino)phenyl)thiophene-3-sulfonamide]
IC50 (CDK6/CCND1; [5]): > 250 nM | IC50 (CDK1/CCNB1; [6]): > 250 nM | IC50 (CDK4/CCND3; [7]): > 250 nM | IC50 (CDK2/CCNE1; [4]): < 25 nM

Cc1c(-c2nccc3cnc(Nc4ccc(NS(=O)(=O)c5ccn(C)n5)cc4)cc23)ccc2c1cnn2CC(C)(C)O [Ex 832, N-(4-((5-(1-(2-hydroxy-2-methylpropyl)-4-methyl-1H-indazol-5-yl)-2,6-naphthyridin-3-yl)amino)phenyl)-1-methyl-1H-pyrazole-3-sulfonamide]
IC50 (CDK6/CCND1; [1]): 25 to 250 nM | IC50 (CDK1/CCNB1; [2]): 25 to 250 nM | IC50 (CDK4/CCND3; [3]): 25 to 250 nM | IC50 (CDK2/CCNE1; [4]): < 25 nM

Cc1oncc1S(=O)(=O)Nc1ccc(Nc2cc3c(-c4ccc5c(cnn5CC(C)(C)O)c4C)nccc3cn2)cc1 [Ex 833, N-(4-((5-(1-(2-hydroxy-2-methylpropyl)-4-methyl-1H-indazol-5-yl)-2,6-naphthyridin-3-yl)amino)phenyl)-5-methylisoxazole-4-sulfonamide]
IC50 (CDK6/CCND1; [5]): > 250 nM | IC50 (CDK1/CCNB1; [6]): > 250 nM | IC50 (CDK4/CCND3; [7]): > 250 nM | IC50 (CDK2/CCNE1; [9]): 25 to 250 nM

Cc1c(-c2nccc3cnc(Nc4ccc(NS(=O)(=O)c5cccs5)cc4)cc23)ccc2c1cnn2CC(C)(C)O [Ex 834, N-(4-((5-(1-(2-hydroxy-2-methylpropyl)-4-methyl-1H-indazol-5-yl)-2,6-naphthyridin-3-yl)amino)phenyl)thiophene-2-sulfonamide]
IC50 (CDK6/CCND1; [5]): > 250 nM | IC50 (CDK1/CCNB1; [6]): > 250 nM | IC50 (CDK4/CCND3; [7]): > 250 nM | IC50 (CDK2/CCNE1; [4]): < 25 nM

Cc1c(-c2nccc3cnc(Nc4ccc(NS(=O)(=O)c5cnn(C)c5)cc4)cc23)ccc2c1cnn2CC(C)(C)O [Ex 835, N-(4-((5-(1-(2-hydroxy-2-methylpropyl)-4-methyl-1H-indazol-5-yl)-2,6-naphthyridin-3-yl)amino)phenyl)-1-methyl-1H-pyrazole-4-sulfonamide]
IC50 (CDK6/CCND1; [1]): 25 to 250 nM | IC50 (CDK1/CCNB1; [2]): 25 to 250 nM | IC50 (CDK4/CCND3; [3]): 25 to 250 nM | IC50 (CDK2/CCNE1; [4]): < 25 nM

Cc1cc(Nc2cc3c(-c4ccc5c(cnn5CC(C)(C)O)c4C)nccc3cn2)ccc1S(C)(=O)=O [Ex 836, 2-methyl-1-(4-methyl-5-(7-((3-methyl-4-(methylsulfonyl)phenyl)amino)-2,6-naphthyridin-1-yl)-1H-indazol-1-yl)propan-2-ol]
IC50 (CDK6/CCND1; [5]): > 250 nM | IC50 (CDK1/CCNB1; [6]): > 250 nM | IC50 (CDK4/CCND3; [7]): > 250 nM | IC50 (CDK2/CCNE1; [4]): < 25 nM

COc1cc(Nc2cc3c(-c4ccc5c(cnn5CC(C)(C)O)c4C)nccc3cn2)ccc1S(C)(=O)=O [Ex 837, 1-(5-(7-((3-methoxy-4-(methylsulfonyl)phenyl)amino)-2,6-naphthyridin-1-yl)-4-methyl-1H-indazol-1-yl)-2-methylpropan-2-ol]
IC50 (CDK6/CCND1; [5]): > 250 nM | IC50 (CDK1/CCNB1; [6]): > 250 nM | IC50 (CDK4/CCND3; [7]): > 250 nM | IC50 (CDK2/CCNE1; [9]): 25 to 250 nM

COc1cc(S(C)(=O)=O)ccc1Nc1cc2c(-c3ccc4c(cnn4CC(C)(C)O)c3C)nccc2cn1 [Ex 838, 1-(5-(7-((2-methoxy-4-(methylsulfonyl)phenyl)amino)-2,6-naphthyridin-1-yl)-4-methyl-1H-indazol-1-yl)-2-methylpropan-2-ol]
IC50 (CDK6/CCND1; [5]): > 250 nM | IC50 (CDK1/CCNB1; [6]): > 250 nM | IC50 (CDK4/CCND3; [7]): > 250 nM | IC50 (CDK2/CCNE1; [4]): < 25 nM

Cc1c(-c2nccc3cnc(Nc4ccc(NS(=O)(=O)c5cccnc5)cc4)cc23)ccc2c1cnn2CC(C)(C)O [Ex 839, N-(4-((5-(1-(2-hydroxy-2-methylpropyl)-4-methyl-1H-indazol-5-yl)-2,6-naphthyridin-3-yl)amino)phenyl)pyridine-3-sulfonamide]
IC50 (CDK6/CCND1; [1]): 25 to 250 nM | IC50 (CDK1/CCNB1; [2]): 25 to 250 nM | IC50 (CDK4/CCND3; [3]): 25 to 250 nM | IC50 (CDK2/CCNE1; [4]): < 25 nM

C[C@@H]1CN(C)CCN1c1cc(Nc2cc3c(C#Cc4ccc(=O)[nH]n4)nccc3cn2)cnc1O [Ex 840, (R)-6-((7-((5-(2,4-dimethylpiperazin-1-yl)-6-hydroxypyridin-3-yl)amino)-2,6-naphthyridin-1-yl)ethynyl)pyridazin-3(2H)-one]
IC50 (CDK6/CCND1; [5]): > 250 nM | IC50 (CDK1/CCNB1; [6]): > 250 nM | IC50 (CDK4/CCND3; [7]): > 250 nM | IC50 (CDK2/CCNE1; [8]): > 250 nM

Cc1ccnc(NS(=O)(=O)c2ccc(Nc3cc4c(-c5ccc6c(cnn6CC(C)(C)O)c5C)nccc4cn3)cc2)c1 [Ex 841, 4-((5-(1-(2-hydroxy-2-methylpropyl)-4-methyl-1H-indazol-5-yl)-2,6-naphthyridin-3-yl)amino)-N-(4-methylpyridin-2-yl)benzenesulfonamide]
IC50 (CDK6/CCND1; [1]): 25 to 250 nM | IC50 (CDK1/CCNB1; [6]): > 250 nM | IC50 (CDK4/CCND3; [3]): 25 to 250 nM | IC50 (CDK2/CCNE1; [4]): < 25 nM

Cc1c(-c2nccc3cnc(Nc4ccc(S(=O)(=O)Nc5ccc(N6CCOCC6)nn5)cc4)cc23)ccc2c1cnn2CC(C)(C)O [Ex 842, 4-((5-(1-(2-hydroxy-2-methylpropyl)-4-methyl-1H-indazol-5-yl)-2,6-naphthyridin-3-yl)amino)-N-(6-morpholinopyridazin-3-yl)benzenesulfonamide]
IC50 (CDK6/CCND1; [1]): 25 to 250 nM | IC50 (CDK1/CCNB1; [2]): 25 to 250 nM | IC50 (CDK4/CCND3; [3]): 25 to 250 nM | IC50 (CDK2/CCNE1; [4]): < 25 nM

Cc1nn(C)cc1S(=O)(=O)Nc1ccc(Nc2cc3c(-c4ccc5c(cnn5CC(C)(C)O)c4C)nccc3cn2)cc1 [Ex 843, N-(4-((5-(1-(2-hydroxy-2-methylpropyl)-4-methyl-1H-indazol-5-yl)-2,6-naphthyridin-3-yl)amino)phenyl)-1,3-dimethyl-1H-pyrazole-4-sulfonamide]
IC50 (CDK6/CCND1; [1]): 25 to 250 nM | IC50 (CDK1/CCNB1; [6]): > 250 nM | IC50 (CDK4/CCND3; [3]): 25 to 250 nM | IC50 (CDK2/CCNE1; [4]): < 25 nM
